Literature values, collected in US20110151497A1, “METABOLOMIC PROFILING OF PROSTATE CANCER” (THE REGENTS OF THE UNIVERSITY OF MICHIGAN, priority 2009, published 2011).

Details: humans, isotope labeling

Structure (SMILES): CCCCCCCCCCCCCCCCCC(=O)O [stearic acid]
- fraction of dietary stearic acid oxidatively desaturated to oleic acid relative to fraction of palmitic acid converted to palmitoleic acid: 2.4 times
